Source: patent US8614223B2, “Pyrimidine hydroxy amide compounds as protein deacetylase inhibitors and methods of use thereof” (Acetylon Pharmaceuticals, Inc., priority 2010, dated 2013)

Experiments:
[1] = target: HDAC3 (Homo sapiens (Human), UniProt O15379); experiment: HDAC enzyme assay, HDAC3; conditions: for HDAC3 fold over HDAC6 IC50 (selectivity for HDAC6): ratio HDAC3/HDAC6; for IC50: read-out: HDAC3 IC50
[2] = target: HDAC6 (Homo sapiens (Human), UniProt Q9UBN7); conditions: read-out: HDAC6 IC50
[3] = target: HDAC2 (Homo sapiens (Human), UniProt Q92769); experiment: HDAC enzyme assay, HDAC2; conditions: for HDAC2 fold over HDAC6 IC50 (selectivity for HDAC6): ratio HDAC2/HDAC6; for IC50: read-out: HDAC2 IC50
[4] = target: HDAC1 (Homo sapiens (Human), UniProt Q13547); experiment: HDAC enzyme assay, HDAC1; conditions: for HDAC1 fold over HDAC6 IC50 (selectivity for HDAC6): ratio HDAC1/HDAC6; for IC50: read-out: HDAC1 IC50
HDAC1, sequence (Q13547 whole entry): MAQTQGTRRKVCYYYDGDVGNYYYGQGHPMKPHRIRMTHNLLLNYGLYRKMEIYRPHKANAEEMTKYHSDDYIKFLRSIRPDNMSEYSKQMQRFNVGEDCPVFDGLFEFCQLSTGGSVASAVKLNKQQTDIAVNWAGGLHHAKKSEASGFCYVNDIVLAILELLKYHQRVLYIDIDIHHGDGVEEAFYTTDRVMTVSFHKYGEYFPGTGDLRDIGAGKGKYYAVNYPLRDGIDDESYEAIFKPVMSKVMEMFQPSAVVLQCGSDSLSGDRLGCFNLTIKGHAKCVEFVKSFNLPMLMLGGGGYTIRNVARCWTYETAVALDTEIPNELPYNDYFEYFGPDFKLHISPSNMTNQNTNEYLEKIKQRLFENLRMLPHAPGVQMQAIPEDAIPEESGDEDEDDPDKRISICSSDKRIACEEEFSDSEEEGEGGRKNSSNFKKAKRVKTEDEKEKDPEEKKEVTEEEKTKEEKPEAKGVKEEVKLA

HDAC6, sequence (Q9UBN7 whole entry): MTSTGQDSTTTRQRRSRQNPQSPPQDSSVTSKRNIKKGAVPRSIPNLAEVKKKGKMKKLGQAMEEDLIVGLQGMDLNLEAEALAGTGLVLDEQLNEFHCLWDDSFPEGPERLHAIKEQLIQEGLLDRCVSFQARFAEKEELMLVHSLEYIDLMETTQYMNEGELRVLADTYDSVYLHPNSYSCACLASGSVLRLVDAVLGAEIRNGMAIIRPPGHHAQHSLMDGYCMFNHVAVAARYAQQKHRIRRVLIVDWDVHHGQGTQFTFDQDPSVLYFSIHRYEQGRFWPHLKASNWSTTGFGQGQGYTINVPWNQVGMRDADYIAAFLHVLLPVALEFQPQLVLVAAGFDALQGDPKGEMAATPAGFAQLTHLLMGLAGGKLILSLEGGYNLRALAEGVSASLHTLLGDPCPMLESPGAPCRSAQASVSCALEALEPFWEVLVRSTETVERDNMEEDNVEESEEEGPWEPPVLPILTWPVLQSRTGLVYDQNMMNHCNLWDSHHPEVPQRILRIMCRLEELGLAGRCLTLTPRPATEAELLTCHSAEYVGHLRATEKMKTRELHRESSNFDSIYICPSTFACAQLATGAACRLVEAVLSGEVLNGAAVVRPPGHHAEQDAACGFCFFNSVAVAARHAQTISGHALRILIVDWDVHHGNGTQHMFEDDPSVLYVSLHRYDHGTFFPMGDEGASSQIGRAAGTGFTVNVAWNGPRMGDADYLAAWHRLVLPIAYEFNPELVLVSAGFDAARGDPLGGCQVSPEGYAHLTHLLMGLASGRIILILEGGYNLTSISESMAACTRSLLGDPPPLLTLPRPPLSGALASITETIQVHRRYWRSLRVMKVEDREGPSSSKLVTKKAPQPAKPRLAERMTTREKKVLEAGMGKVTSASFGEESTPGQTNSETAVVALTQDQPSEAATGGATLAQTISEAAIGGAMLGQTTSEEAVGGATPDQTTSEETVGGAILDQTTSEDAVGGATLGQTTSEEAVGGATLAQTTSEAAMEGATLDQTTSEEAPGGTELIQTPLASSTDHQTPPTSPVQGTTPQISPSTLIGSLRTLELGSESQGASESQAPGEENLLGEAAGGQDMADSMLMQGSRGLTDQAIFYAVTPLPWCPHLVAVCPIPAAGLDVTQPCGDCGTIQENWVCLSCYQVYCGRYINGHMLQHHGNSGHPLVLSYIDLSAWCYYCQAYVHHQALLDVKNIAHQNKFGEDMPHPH
HDAC2, sequence (Q92769 whole entry): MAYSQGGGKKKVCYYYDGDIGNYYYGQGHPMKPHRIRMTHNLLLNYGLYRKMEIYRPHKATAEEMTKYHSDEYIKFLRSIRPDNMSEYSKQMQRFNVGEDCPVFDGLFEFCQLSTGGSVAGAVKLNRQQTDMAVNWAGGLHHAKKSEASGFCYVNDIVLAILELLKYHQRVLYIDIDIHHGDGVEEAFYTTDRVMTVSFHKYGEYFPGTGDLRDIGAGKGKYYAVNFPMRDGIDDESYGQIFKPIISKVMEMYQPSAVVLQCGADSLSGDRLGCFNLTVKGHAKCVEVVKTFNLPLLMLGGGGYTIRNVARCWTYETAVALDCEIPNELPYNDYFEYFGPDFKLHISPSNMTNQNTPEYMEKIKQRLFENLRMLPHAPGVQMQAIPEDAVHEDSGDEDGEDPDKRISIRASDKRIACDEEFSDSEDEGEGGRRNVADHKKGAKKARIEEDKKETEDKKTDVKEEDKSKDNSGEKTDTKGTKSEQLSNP
HDAC3, sequence (O15379 whole entry): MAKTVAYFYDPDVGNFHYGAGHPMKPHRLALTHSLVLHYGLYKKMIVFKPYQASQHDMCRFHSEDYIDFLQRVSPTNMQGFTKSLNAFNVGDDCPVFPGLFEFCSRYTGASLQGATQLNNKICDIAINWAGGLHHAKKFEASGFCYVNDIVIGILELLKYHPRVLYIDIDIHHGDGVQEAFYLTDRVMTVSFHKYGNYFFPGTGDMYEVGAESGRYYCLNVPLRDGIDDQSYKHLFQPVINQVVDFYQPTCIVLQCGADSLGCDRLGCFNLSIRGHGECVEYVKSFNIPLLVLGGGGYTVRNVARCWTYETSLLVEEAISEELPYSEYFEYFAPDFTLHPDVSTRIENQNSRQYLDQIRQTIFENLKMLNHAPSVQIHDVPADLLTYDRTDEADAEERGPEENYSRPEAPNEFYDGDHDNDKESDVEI
HDAC3, sequence (Q9Y618 395-489 partner): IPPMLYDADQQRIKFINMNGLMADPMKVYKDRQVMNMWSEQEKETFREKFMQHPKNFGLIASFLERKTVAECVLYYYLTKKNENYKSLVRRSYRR

Structure (SMILES) | HDAC3 fold over HDAC6 IC50 (selectivity for HDAC6) [1] | IC50 [1] [µM] | IC50 [2] [µM] | HDAC2 fold over HDAC6 IC50 (selectivity for HDAC6) [3] | IC50 [3] [µM] | HDAC1 fold over HDAC6 IC50 (selectivity for HDAC6) [4] | IC50 [4] [µM]
O=C(NO)c1cnc(NC2(c3ccc(F)cc3)CCCCC2)nc1 [Compound 100] | (1428.4x) | 13.5 | 0.009 | (504.7x) | 4.76 | (339.9x) | 3.21
COc1ccc(C2(Nc3ncc(C(=O)NO)cn3)CC2)cc1OC [Compound 138] | (13.9x) | 0.113 | 0.008 | (6x) | 0.049 | (6.2x) | 0.05
O=C(NO)c1cnc(Nc2ccc(F)cc2)nc1 [Compound 3] | (44.9x) | 0.354 | 0.008 | (44.1x) | 0.347 | (26.7x) | 0.21
O=C(NO)c1cnc(Nc2ccc(Cl)cc2)nc1 [Compound 6] | (13.3x) | 0.266 | 0.02 | (11.6x) | 0.231 | (10.1x) | 0.202
O=C(NO)c1cnc(Nc2c(F)c(F)cc(F)c2F)nc1 [Compound 16] | (28.3x) | 0.6 | 0.021 | (18.1x) | 0.384 | (15.7x) | 0.332
CC(C)(Nc1ncc(C(=O)NO)cn1)c1cc(C(F)(F)F)cc(C(F)(F)F)c1 [Compound 92] | (134.4x) | 4.42 | 0.033 | (68x) | 2.23 | (41.3x) | 1.36
O=C(NO)c1cnc(NCCc2c[nH]c3ccccc23)nc1 [Compound 43] | (27.1x) | 0.107 | 0.004 | (30.3x) | 0.12 | (22.8x) | 0.09
O=C(NO)c1cnc(NC2(c3ccc(F)cc3F)CC2)nc1 [Compound 123] | (9.6x) | 0.026 | 0.003 | (4.3x) | 0.012 | (4.8x) | 0.013
O=C(NO)c1cnc(NCc2ccccc2OC(F)(F)F)nc1 [Compound 47] | (75.1x) | 0.3 | 0.004 | (86.7x) | 0.346 | (55.8x) | 0.223
O=C(NO)c1cnc(NC2(c3ccccc3C(F)(F)F)CC2)nc1 [Compound 91] | (169.4x) | 0.374 | 0.002 | (130.2x) | 0.288 | (72.3x) | 0.16
Cc1cc(C)cc(Nc2ncc(C(=O)NO)cn2)c1 [Compound 19] | (88x) | 0.319 | 0.004 | (131.7x) | 0.478 | (69.1x) | 0.251
O=C(NO)c1cnc(NC2(c3c(F)cccc3F)CC2)nc1 [Compound 124] | (5.9x) | 0.008 | 0.001 | (3.9x) | 0.006 | (3.6x) | 0.005
O=C(NO)c1cnc(Nc2ccc([N+](=O)[O-])c(C(F)(F)F)c2)nc1 [Compound 10] | (42.6x) | 0.43 | 0.01 | (62.5x) | 0.631 | (32.6x) | 0.329
O=C(NO)c1cnc(NCc2ccccc2C(F)(F)F)nc1 [Compound 38] | (128.1x) | 0.891 | 0.007 | (103.5x) | 0.72 | (67.5x) | 0.47
COc1ccc(C2(Nc3ncc(C(=O)NO)cn3)CCCC2)cc1 [Compound 152] | (29.9x) | 0.649 | 0.004 | (10.1x) | 0.22 | (11.4x) | 0.248
O=C(NO)c1cnc(NC2(c3ccc(C(F)(F)F)c(F)c3)CC2)nc1 [Compound 137] | (18.5x) | 0.07 | 0.004 | (5.5x) | 0.021 | (7.1x) | 0.027
COc1ccccc1CNc1ncc(C(=O)NO)cn1 [Compound 45] | (143.4x) | 0.506 | 0.004 | (148.5x) | 0.523 | (106.9x) | 0.377
COc1ccc(Cl)cc1C1(Nc2ncc(C(=O)NO)cn2)CC1 [Compound 139] | (184x) | 0.782 | 0.004 | (112.8x) | 0.479 | (90.9x) | 0.386
O=C(NO)c1cnc(NC2CCOCC2)nc1 [Compound 104] | (24x) | 1.17 | 0.049 | (24.1x) | 1.17 | (16.7x) | 0.813
O=C(NO)c1cnc(NCc2cccnc2)nc1 [Compound 106] | (47.7x) | 0.174 | 0.004 | (36.5x) | 0.133 | (25.3x) | 0.092
CC(C)(Nc1ncc(C(=O)NO)cn1)c1ccc(C(F)(F)F)cc1F [Compound 86] | (221.2x) | 2.89 | 0.013 | (98.9x) | 1.29 | (60.3x) | 0.788
O=C(NO)c1cnc(Nc2cccc(-c3ccncc3)c2)nc1 [Compound 30] | (44.1x) | 0.141 | 0.003 | (56.5x) | 0.181 | (27.5x) | 0.088
O=C(NO)c1cnc(NC2CCCCC2)nc1 [Compound 103] | (23.9x) | 1.1 | 0.046 | (18.1x) | 0.832 | (12.6x) | 0.578
